Measured values as given in patent US9012431B2, “Boron-containing small molecules as anti-inflammatory agents” (Anacor Pharmaceuticals, Inc., priority 2008, dated 2015).
Where two headings read alike, the source gives them in different places.

Legend:
[1] = test system: IFN-γ secretion from PBMCs; assay: IFN-γ secretion from PBMCs stimulated with PHA; format: cell-based, human; details: PBMC
Excerpt: (§1) Compounds were screened by a biochemical assay against PDE4 enzyme and cell-based cytokine release assays using PBMCs stimulated by LPS or phytohemagglutinin (PHA).

MCP-1 and PGE2 = assay: Release of chemokine MCP-1 and PGE2; format: cell-based
Excerpt: This activity is explained in part by the inhibition of phosphodiesterase-4 (PDE-4).

[2] = test system: IL-23 production from human THP-1 macrophages; assay: IL-23 production by THP-1 cells stimulated with IFN-g and LPS; format: cell-based
IFN-γ = assay: Cytokine assay, IFN-γ release from PBMC; format: cell-based; details: human PBMC, 20 ug/mL PHA, supernatant at 24 hours
Procedure, shortened: (§2)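 Inhibition of cytokine release was assessed in thawed human PBMC cultured in RPMI 1640 plus 10% FBS, with compound tested at four concentrations from 0.01 to 10 μM.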

PDE5 = PDE5 (Homo sapiens, UniProt O76074); assay: PDE5 inhibition; format: biochemical
PDE2 = molecular target: T1, PDE2 (Homo sapiens, UniProt O00408); assay: PDE2 inhibition; format: biochemical
T1 construct: made in house; host or cells: baculoviral expression system
T1 sequence (O00408 whole entry): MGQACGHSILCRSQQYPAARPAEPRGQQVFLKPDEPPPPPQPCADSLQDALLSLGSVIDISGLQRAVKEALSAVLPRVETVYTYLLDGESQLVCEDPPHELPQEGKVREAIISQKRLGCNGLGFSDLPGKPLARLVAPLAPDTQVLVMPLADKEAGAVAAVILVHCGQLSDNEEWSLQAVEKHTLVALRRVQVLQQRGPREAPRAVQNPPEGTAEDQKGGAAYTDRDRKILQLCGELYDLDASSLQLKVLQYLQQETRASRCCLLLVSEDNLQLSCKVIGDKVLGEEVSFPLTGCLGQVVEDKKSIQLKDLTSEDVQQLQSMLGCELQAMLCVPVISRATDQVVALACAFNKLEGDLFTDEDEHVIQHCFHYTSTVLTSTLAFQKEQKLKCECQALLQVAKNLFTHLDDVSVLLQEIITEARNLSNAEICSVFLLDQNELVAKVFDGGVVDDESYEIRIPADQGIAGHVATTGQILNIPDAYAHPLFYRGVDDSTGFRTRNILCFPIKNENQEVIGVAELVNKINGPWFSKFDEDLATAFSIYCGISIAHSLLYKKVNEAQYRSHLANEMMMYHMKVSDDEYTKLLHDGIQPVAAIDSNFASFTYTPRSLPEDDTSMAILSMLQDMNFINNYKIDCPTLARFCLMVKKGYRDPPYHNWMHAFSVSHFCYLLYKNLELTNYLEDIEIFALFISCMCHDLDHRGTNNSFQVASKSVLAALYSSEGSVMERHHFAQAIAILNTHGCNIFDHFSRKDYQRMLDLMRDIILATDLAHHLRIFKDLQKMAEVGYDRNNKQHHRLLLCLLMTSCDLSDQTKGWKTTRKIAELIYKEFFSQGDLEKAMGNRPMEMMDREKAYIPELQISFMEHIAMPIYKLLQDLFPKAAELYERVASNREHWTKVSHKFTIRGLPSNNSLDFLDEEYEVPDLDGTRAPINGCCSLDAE

hERG-channel = hERG-channel (Homo sapiens, UniProt Q12809); assay: hERG-channel block; format: biochemical; details: C17 at 1 μM
Sequence of hERG-channel (Q12809 whole entry): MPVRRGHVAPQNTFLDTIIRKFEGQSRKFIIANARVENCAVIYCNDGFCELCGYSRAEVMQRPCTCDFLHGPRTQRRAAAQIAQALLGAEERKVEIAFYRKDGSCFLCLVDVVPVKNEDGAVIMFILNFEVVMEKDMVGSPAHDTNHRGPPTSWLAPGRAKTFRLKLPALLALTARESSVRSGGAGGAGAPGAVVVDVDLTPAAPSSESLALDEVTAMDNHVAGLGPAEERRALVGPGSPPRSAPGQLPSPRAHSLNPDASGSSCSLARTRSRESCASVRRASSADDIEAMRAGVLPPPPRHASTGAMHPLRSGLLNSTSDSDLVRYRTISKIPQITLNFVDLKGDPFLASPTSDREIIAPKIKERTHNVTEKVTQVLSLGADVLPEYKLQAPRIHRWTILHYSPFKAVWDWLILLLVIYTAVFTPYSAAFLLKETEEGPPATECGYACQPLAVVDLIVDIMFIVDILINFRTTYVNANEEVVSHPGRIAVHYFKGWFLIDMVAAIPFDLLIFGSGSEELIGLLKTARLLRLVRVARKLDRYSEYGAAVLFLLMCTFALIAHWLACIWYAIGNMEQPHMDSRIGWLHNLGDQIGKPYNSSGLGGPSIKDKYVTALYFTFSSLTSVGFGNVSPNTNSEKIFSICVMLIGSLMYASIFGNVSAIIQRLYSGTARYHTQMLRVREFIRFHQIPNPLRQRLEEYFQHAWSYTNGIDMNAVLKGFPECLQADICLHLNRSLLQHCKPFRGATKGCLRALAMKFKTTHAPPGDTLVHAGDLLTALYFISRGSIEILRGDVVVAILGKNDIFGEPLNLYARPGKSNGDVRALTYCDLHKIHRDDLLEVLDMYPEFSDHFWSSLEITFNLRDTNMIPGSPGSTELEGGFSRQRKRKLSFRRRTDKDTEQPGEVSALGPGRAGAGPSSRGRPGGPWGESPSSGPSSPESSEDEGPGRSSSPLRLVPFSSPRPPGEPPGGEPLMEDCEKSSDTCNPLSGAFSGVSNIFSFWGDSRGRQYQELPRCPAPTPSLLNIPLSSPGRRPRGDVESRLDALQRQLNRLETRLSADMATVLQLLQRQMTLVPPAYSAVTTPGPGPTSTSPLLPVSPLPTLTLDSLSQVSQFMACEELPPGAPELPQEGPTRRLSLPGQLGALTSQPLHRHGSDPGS

Sprague-Dawley rats = details: oral 30, 100, and 300 mg/kg/day, 14 consecutive days
[3] = test system: IL-10 production by human PBMCs; assay: IL-10 production by LPS- or PHA-stimulated PBMCs; format: cell-based
[4] = test system: T2, phosphodiesterase 4 (PDE4) enzyme derived from human U937 cells; assay: PDE4 enzyme activity (enzyme derived from human U937 cells); format: biochemical
T2 construct: PDE4 IC50; other: biochemical assay, PDE4 enzyme derived from human U937 cells; other: PDE4 in human U937 cells
Excerpt: (§3) The structure-activity relationships of novel boron-containing anti-inflammatory agents was investigated.
as §1

[5] = test system: phosphodiesterase 4 (PDE4) enzyme derived from human U937 cells; assay: as above; format: biochemical; details: versus substrate cAMP
Excerpt: as §3, §1

[6] = test system: T3, PDE4 partially purified from human U-937 myeloid leukemia cells; assay: PDE4 Assay (enzyme from U-937 cells, [3H]cAMP); format: biochemical; details: PDE4 from U-937 cells, Tris buffer pH 7.5, 20 minutes at 25° C.
T3 construct: PDE4 partially purified from human U-937 myeloid leukemia cells was used

IL-10 = assay: Cytokine assay, IL-10 release from PBMC; format: cell-based; details: human PBMC, 20 ug/mL PHA, supernatant at 48 hours
Procedure, shortened: as §2

IL-2 = assay: Cytokine assay, IL-2 release from PBMC; format: cell-based; details: human PBMC, 20 ug/mL PHA, supernatant at 24 hours
Procedure, shortened: as §2

female CBA/J mice = assay: Local lymph node assay (hypersensitivity response); format: in vivo
PDE1A3 = molecular target: T4, PDE1A3 (Homo sapiens, UniProt P54750); assay: PDE1 inhibition; format: biochemical
T4 construct: made in house; host or cells: baculoviral expression system
T4 sequence (P54750 whole entry): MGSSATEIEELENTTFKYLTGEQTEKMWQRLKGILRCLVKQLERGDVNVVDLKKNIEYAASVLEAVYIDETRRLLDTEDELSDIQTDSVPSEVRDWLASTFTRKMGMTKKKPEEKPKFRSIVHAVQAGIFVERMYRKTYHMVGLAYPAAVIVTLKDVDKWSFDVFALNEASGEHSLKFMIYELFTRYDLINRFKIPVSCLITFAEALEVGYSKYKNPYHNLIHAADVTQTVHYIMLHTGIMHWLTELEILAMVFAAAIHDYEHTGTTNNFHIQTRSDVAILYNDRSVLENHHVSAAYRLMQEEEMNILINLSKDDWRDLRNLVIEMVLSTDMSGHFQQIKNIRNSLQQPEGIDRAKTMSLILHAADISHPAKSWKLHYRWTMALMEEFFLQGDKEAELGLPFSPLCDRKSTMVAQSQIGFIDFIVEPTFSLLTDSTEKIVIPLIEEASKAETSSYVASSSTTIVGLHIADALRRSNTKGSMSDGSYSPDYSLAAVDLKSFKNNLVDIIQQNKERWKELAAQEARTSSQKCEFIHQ

TNF-α = assay: Cytokine assay, TNF-α release from PBMC; format: cell-based; details: Homo sapiens, PBMC, 24 h, 1 μg/mL LPS, supernatant at 24 hours
Procedure, shortened: as §2

[7] = test system: TNF-α secretion from peripheral blood mononuclear cells (PBMCs); assay: TNF-α secretion from PBMCs stimulated by LPS; format: cell-based, human; details: PBMC
Excerpt: as §1

[8] = test system: CD-1 (Crl.) derived male mice; assay: Phorbol Ester Induced Mouse Ear Edema Model; format: in vivo; details: topical, 6 h, 1 mg/ear × 2 topical, vehicle not given, ear swelling 6 hours after PMA
Procedure, shortened: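 Test compounds in acetone:ethanol 1:1 were applied topically to both ears 30 min before and 15 min after PMA challenge; dexamethasone positive control followed the same schedule. Ear thickness was measured by micrometer 6 h after PMA, and percent inhibition was calculated from ear-thickness increase versus vehicle controls.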

all four PDE4 isoforms = assay: PDE4 isoform inhibition; format: biochemical
[9] = test system: IL-5 production by human PBMCs; assay: IL-5 production by LPS- or PHA-stimulated PBMCs; format: cell-based
shrews (Suncus murinus) = details: shrew (Suncus murinus), in vivo, po
[10] = test system: IL-6 production by human PBMCs; assay: IL-6 production by LPS- or PHA-stimulated PBMCs; format: cell-based
IL-5 = assay: Cytokine assay, IL-5 release from PBMC; format: cell-based; details: human PBMC, 20 ug/mL PHA, supernatant at 48 hours
Procedure, shortened: as §2

N#Cc1ccc(Oc2ccc3c(c2)COB3O)cc1 [C17, 5-(4-cyanophenoxy)-1-hydroxy-1,3-dihydro-2,1-benzoxaborole]
IC50 ([1]; Homo sapiens, PBMCs stimulated with PHA, read-out: IFN-γ secretion IC50): 270 nM | IC50 ([1]; LPS- and PHA-induced cytokine production by human PBMCs, read-out: IC50 IFNg (Th1 cytokines)): < 1000 nM | release of the chemokine MCP-1 and PGE2 (MCP-1 and PGE2): inhibits the release | IC50 ([2]; human THP-1 macrophages, read-out: IL-23 production IC50): 2250 nM | IC50 ([2]; human THP-1 monocytic cells stimulated with IFN-g and LPS, read-out: IC50 IL-23*): 1000 to 10000 nM | IC50 (IFN-γ): < 1000 nM | inhibition of PDE5 (PDE5): does not significantly inhibit | inhibition of PDE2 (PDE2): does not significantly inhibit | hERG-channel blocker classification (hERG-channel): low potency hERG-channel blocker | mortality, clinical pathology, microscopic or macroscopic changes (Sprague-Dawley rats): No mortality, adverse effects on clinical pathology, or microscopic or macroscopic changes were observed in any dose group | IC50 ([3]; PBMC, LPS- and PHA-induced cytokine production by human PBMCs, read-out: IC50 IL-10 (Th2 cytokines)): < 1000 nM | IL-10 inhibition, range in words ([3]; PBMCs): low micromolar range | IC50 ([4]; PDE4 in human U937 cells, read-out: PDE4 enzyme activity IC50): 490 nM | IC50 ([4]; biochemical assay, PDE4 enzyme derived from human U937 cells, read-out: PDE4 IC50): 490 nM | mode of inhibition (enzyme kinetic analysis) [5]: competitive inhibitor | IC50 [6]: < 1000 nM | IC50 (IL-10): 4000 to 10000 nM | IC50 (IL-2): < 1000 nM | skin sensitizing activity (female CBA/J mice; mouse, in vivo): not considered to have skin sensitizing activity | stimulation index (female CBA/J mice; topical 1%, 5%, and 10% solution in acetone/ethanol (50:50, v/v)): < 3 | inhibition of PDE1 (PDE1A3): does not significantly inhibit | IC50 (PDE1A3; standard: 8-methoxymethyl-IBMX): 1000 to 10000 nM | IC50 (TNF-α): < 1000 nM | IC50 ([7]; Homo sapiens, PBMCs stimulated by LPS, read-out: TNF-α secretion IC50): 770 nM | IC50 ([7]; LPS- and PHA-induced cytokine production by human PBMCs, read-out: IC50 TNFα (pro-inflammatory cytokines)): < 1000 nM | inhibition in vivo at 1 mg [8]: 60 to 90% | inhibition of PDE4 isoforms (all four PDE4 isoforms): inhibiting all four PDE4 isoforms equally | IC50 ([9]; PBMC, LPS- and PHA-induced cytokine production by human PBMCs, read-out: IC50 IL-5 (Th2 cytokines)): 1000 to 10000 nM | IL-5 inhibition, range in words ([9]; PBMCs): low micromolar range | no-observed-effect level (NOEL), emesis (shrews (Suncus murinus)): 10 mg/kg | IC50 ([10]; PBMC, LPS- and PHA-induced cytokine production by human PBMCs, read-out: IC50 IL-6 (pro-inflammatory cytokines)): > 30000 nM | effect on IL-6 ([10]; PBMCs): not affected | IC50 (IL-5): 1000 to 4000 nM
